The record followed here is patent US20240343704A1, “HALO-SUBSTITUTED AMINO PYRIDINE COMPOUNDS AS INHIBITORS OF THE HAEMATOPOIETIC PROGENITOR KINASE 1 (HPK1)” (priority 2021, published 2024).

The assay concerns the target T1, Recombinant (1-346) HPK1 (h) (Homo sapiens, UniProt Q92918).
T1 construct: Recombinant (1-346) HPK1 (h) is incubated with 8 mM MOPS pH 7.0
T1 sequence (Q92918 1-346): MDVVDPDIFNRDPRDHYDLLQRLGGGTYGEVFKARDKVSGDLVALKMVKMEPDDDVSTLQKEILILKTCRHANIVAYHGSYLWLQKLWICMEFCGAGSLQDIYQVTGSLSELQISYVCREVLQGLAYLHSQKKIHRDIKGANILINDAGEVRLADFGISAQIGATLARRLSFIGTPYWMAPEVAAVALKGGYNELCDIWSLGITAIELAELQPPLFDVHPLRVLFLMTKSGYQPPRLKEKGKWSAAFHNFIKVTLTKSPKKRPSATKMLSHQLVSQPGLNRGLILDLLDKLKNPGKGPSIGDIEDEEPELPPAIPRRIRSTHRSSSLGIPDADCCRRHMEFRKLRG
Kind of assay: HPK1 Human STE Kinase Enzymatic Radiometric Assay. It is filed as biochemical. Particulars: read-out: HPK1 IC50 nM Range*. As to the method:
A stock solution of 10 mM of test compound is prepared in DMSO. The compound plate was prepared by 3-fold and 9-point serial dilutions. […] The reaction is initiated by The addition of the Mg/ATP mix. After incubation for 40 minutes at RT, the reaction is stopped by the addition of phosphoric acid to a concentration of 0.5%.
As a reminder, the IC50 is the concentration that inhibits the measured activity by half. As for `CN(C)Cc1cc(-c2cc(-c3ccc4c(c3)CCNC4=O)c(N)nc2F)ccc1OCC1CC1` [I-506, 6-(2-amino-5-(4-(cyclopropylmethoxy)-3-((dimethylamino)methyl)phenyl)-6-fluoropyridin-3-yl)-3,4-dihydroisoquinolin-1(2H)-one], the IC50 was 11 to 100 nM.

Take `Nc1nc(F)c(-c2ccc(N3CCN(CCC(F)F)CC3)cc2)cc1-c1ccc2c(c1)CCNC2=O` [I-476, 6-(2-amino-5-(4-(4-(3,3-difluoropropyl)piperazin-1-yl)phenyl)-6-fluoropyridin-3-yl)-3,4-dihydroisoquinolin-1(2H)-one]: the IC50 was in the range of 0.1 to 10 nM. For `CC(C)N1CCN(c2ccc(-c3cc(-c4cc5c(Cl)c[nH]c(=O)c5cn4)c(N)nc3F)cc2)CC1` [I-570, 6-(2-amino-6-fluoro-5-(4-(4-isopropylpiperazin-1-yl)phenyl)pyridin-3-yl)-4-chloro-2,7-naphthyridin-1(2H)-one], the IC50 was in the range of 0.1 to 10 nM.

Regarding `Cc1nc2cc(-c3cc(-c4ccc(N5C[C@@H](C)N(C)[C@@H](C)C5)cc4)c(F)nc3N)ccc2c(=O)[nH]1` [I-500, 7-(2-amino-6-fluoro-5-(4-((3R,5S)-3,4,5-trimethylpiperazin-1-yl)phenyl)pyridin-3-yl)-2-methylquinazolin-4(3H)-one], the IC50 was in the range of 11 to 100 nM. For `C[C@@H]1CN(c2ccc(-c3cc(-c4ccc5c(c4)CCNC5=O)c(N)nc3F)cc2CN(C)C)CCO1` [I-575, (R)-6-(2-amino-5-(3-((dimethylamino)methyl)-4-(2-methylmorpholino)phenyl)-6-fluoropyridin-3-yl)-3,4-dihydroisoquinolin-1(2H)-one], the IC50 fell in the range of 11 to 100 nM.

Consider `Cc1nc2cc(-c3cc(-c4ccc([C@]56C[C@H]5CN(C)C6)cc4)c(F)nc3N)ccc2c(=O)[nH]1` [I-468, 7-(2-amino-6-fluoro-5-(4-((1S,5R)-3-methyl-3-azabicyclo[3.1.0]hexan-1-yl)phenyl)pyridin-3-yl)-2-methylquinazolin-4(3H)-one], for which the IC50 lay in the range of 11 to 100 nM.

Regarding `CCN(C)Cc1nc(-c2cc(-c3ccc4c(c3)CCNC4=O)c(N)nc2F)ccc1C1CCOCC1` [I-603, 6-(6′-amino-6-((ethyl(methyl)amino)methyl)-2′-fluoro-5-(tetrahydro-2H-pyran-4-yl)-[2,3′-bipyridin]-5′-yl)-3,4-dihydroisoquinolin-1(2H)-one], the IC50 lay within 0.1 to 10 nM.

As for `CC(C)N1CCN(c2ccc(-c3cc(-c4ccc5c(=O)[nH]c(C6CC6)nc5c4)c(N)nc3F)cc2)CC1` [I-412, 7-(2-amino-6-fluoro-5-(4-(4-isopropylpiperazin-1-yl)phenyl)pyridin-3-yl)-2-cyclopropylquinazolin-4(3H)-one], the IC50 lay in the range of 101 to 1000 nM. The figure for `CN(C)Cc1cc(-c2cc(-c3ccc4c(c3)CCNC4=O)c(N)nc2F)ccc1N1CCSCC1` [I-487, 6-(2-amino-5-(3-((dimethylamino)methyl)-4-thiomorpholinophenyl)-6-fluoropyridin-3-yl)-3,4-dihydroisoquinolin-1(2H)-one] is 0.1 to 10 nM; for `COc1ccc(-c2cc(-c3ccc4c(c3)CCNC4=O)c(N)nc2F)cc1CN1CCC(OC)CC1` [I-518, 6-(2-amino-6-fluoro-5-(4-methoxy-3-((4-methoxypiperidin-1-yl)methyl)phenyl)pyridin-3-yl)-3,4-dihydroisoquinolin-1(2H)-one] it is 11 to 100 nM; for `Cc1c[nH]c(=O)c2ccc(-c3cc(-c4ccc(C5CCOCC5)cc4)c(F)nc3N)cc12` [I-586, 6-(2-amino-6-fluoro-5-(4-(tetrahydro-2H-pyran-4-yl)phenyl)pyridin-3-yl)-4-methylisoquinolin-1(2H)-one] it is 11 to 100 nM. On to `Nc1nc(F)c(-c2ccc(N3CCOCC3)c(CN3CCCC3)c2)cc1-c1cc2c(cc1F)C(=O)NCC2` [I-492, 6-(2-amino-6-fluoro-5-(4-morpholino-3-(pyrrolidin-1-ylmethyl)phenyl)pyridin-3-yl)-7-fluoro-3,4-dihydroisoquinolin-1(2H)-one], for which the IC50 was in the range of 11 to 100 nM. For the molecule `CN(C)Cc1cc(-c2cc(-c3ccc4c(c3)CCNC4=O)c(N)nc2F)cnc1N1CCOCC1` [I-612, 6-(6-amino-5′-((dimethylamino)methyl)-2-fluoro-6′-morpholino-[3,3′-bipyridin]-5-yl)-3,4-dihydroisoquinolin-1(2H)-one], the IC50 lay in the range of 11 to 100 nM. In the case of `CN(C)Cc1c(N2CCOCC2)ccc(-c2cc(-c3cc4c(cc3F)C(=O)NCC4)c(N)nc2F)c1F` [I-607, 6-(2-amino-5-(3-((dimethylamino)methyl)-2-fluoro-4-morpholinophenyl)-6-fluoropyridin-3-yl)-7-fluoro-3,4-dihydroisoquinolin-1(2H)-one], the IC50 lay in the range of 11 to 100 nM. As to `Cc1cc2cc(-c3cc(-c4ccc(N5CCN(C(C)C)CC5)cc4)c(F)nc3N)c(F)cc2c(=O)[nH]1` [I-587, 6-(2-amino-6-fluoro-5-(4-(4-isopropylpiperazin-1-yl)phenyl)pyridin-3-yl)-7-fluoro-3-methylisoquinolin-1(2H)-one], the 50% inhibitory concentration (IC50) was in the range of 11 to 100 nM. Regarding `CN(C)Cc1cc(-c2cc(-c3ccc4c(c3)CCNC4=O)c(N)nc2F)ccc1N1CCN(C2CC2)CC1` [I-495, 6-(2-amino-5-(4-(4-cyclopropylpiperazin-1-yl)-3-((dimethylamino)methyl)phenyl)-6-fluoropyridin-3-yl)-3,4-dihydroisoquinolin-1(2H)-one], the IC50 was in the range of 11 to 100 nM.

With `CC(C)N1CCN(c2ccc(-c3cc(-c4ccc5c(=O)[nH]c(C6CCC6)nc5c4)c(N)nc3F)cc2)CC1` [I-413, 7-(2-amino-6-fluoro-5-(4-(4-isopropylpiperazin-1-yl)phenyl)pyridin-3-yl)-2-cyclobutylquinazolin-4(3H)-one], the IC50 lay in the range of 101 to 1000 nM.

For the molecule `CN1CCOC2(C1)CN(c1ccc(-c3cc(-c4cc5c(cc4F)C(=O)NCC5)c(N)nc3F)cc1)C2` [I-539, 6-(2-amino-6-fluoro-5-(4-(8-methyl-5-oxa-2,8-diazaspiro[3.5]nonan-2-yl)phenyl)pyridin-3-yl)-7-fluoro-3,4-dihydroisoquinolin-1(2H)-one], the IC50 lay within 0.1 to 10 nM. Take `CN1CCc2c(cccc2-c2cc(-c3cc4c(cc3F)C(=O)NCC4)c(N)nc2F)C1` [I-464, 6-(2-amino-6-fluoro-5-(2-methyl-1,2,3,4-tetrahydroisoquinolin-5-yl)pyridin-3-yl)-7-fluoro-3,4-dihydroisoquinolin-1(2H)-one]: the IC50 was greater than 1000 nM. For the molecule `Cc1[nH]c(=O)c2ccc(-c3cc(-c4ccc(N5CCN(C(C)C)CC5)cc4)c(F)nc3N)cc2c1Cl` [I-538, 6-(2-amino-6-fluoro-5-(4-(4-isopropylpiperazin-1-yl)phenyl)pyridin-3-yl)-4-chloro-3-methylisoquinolin-1(2H)-one], the IC50 was in the range of 0.1 to 10 nM. Regarding `C[C@@H]1CN(c2ccc(-c3cc(-c4cc(F)c5c(c4)CCNC5=O)c(N)nc3F)cc2CN(C)C)C[C@H](C)O1` [I-596, 6-(2-amino-5-(3-((dimethylamino)methyl)-4-((2R,6S)-2,6-dimethylmorpholino)phenyl)-6-fluoropyridin-3-yl)-8-fluoro-3,4-dihydroisoquinolin-1(2H)-one], the IC50 fell in the range of 11 to 100 nM. Next, `Cc1c[nH]c(=O)c2ccc(-c3cc(-c4ccc5c(c4)[C@H](N(C)C)CO5)c(F)nc3N)cc12` [I-629, (S)-6-(2-amino-5-(3-(dimethylamino)-2,3-dihydrobenzofuran-5-yl)-6-fluoropyridin-3-yl)-4-methylisoquinolin-1(2H)-one]: 101 to 1000 nM; `CC(C)N1CCN(c2ccc(-c3cc(-c4ncc5c(n4)CCNC5=O)c(N)nc3F)cc2)CC1` [I-458, 2-(2-amino-6-fluoro-5-(4-(4-isopropylpiperazin-1-yl)phenyl)pyridin-3-yl)-7,8-dihydropyrido[4,3-d]pyrimidin-5(6H)-one]: 0.1 to 10 nM.

In the case of `C[C@@H]1CN(c2ccc(-c3cc(-c4cc5c(cc4F)C(=O)NCC5)c(N)nc3F)cc2CN(C)C)CCO1` [I-576, (R)-6-(2-amino-5-(3-((dimethylamino)methyl)-4-(2-methylmorpholino)phenyl)-6-fluoropyridin-3-yl)-7-fluoro-3,4-dihydroisoquinolin-1(2H)-one], the IC50 was in the range of 0.1 to 10 nM. For the molecule `CN(Cc1cc(-c2cc(-c3ccc4c(c3)CCNC4=O)c(N)nc2F)ccc1N1CCOCC1)CC1CCCO1` (stereo not shown) [I-616, 6-(2-amino-6-fluoro-5-(3-((methyl((tetrahydrofuran-2-yl)methyl)amino)methyl)-4-morpholinophenyl)pyridin-3-yl)-3,4-dihydroisoquinolin-1(2H)-one], the IC50 was 0.1 to 10 nM. Take `COC1CCN(Cc2cc(-c3cc(-c4ccc5c(c4)CCNC5=O)c(N)nc3F)ccc2OCCCC(F)F)CC1` [I-526, 6-(2-amino-5-(4-(4,4-difluorobutoxy)-3-((4-methoxypiperidin-1-yl)methyl)phenyl)-6-fluoropyridin-3-yl)-3,4-dihydroisoquinolin-1(2H)-one]: the IC50 was in the range of 11 to 100 nM. In the case of `CN(C)Cc1cc(-c2cc(-c3ccc4c(c3)CCNC4=O)c(N)nc2F)ccc1OC1CCOCC1` [I-530, 6-(2-amino-5-(3-((dimethylamino)methyl)-4-((tetrahydro-2H-pyran-4-yl)oxy)phenyl)-6-fluoropyridin-3-yl)-3,4-dihydroisoquinolin-1(2H)-one], the IC50 was 11 to 100 nM. Consider `CN(C)Cc1cc(-c2cc(-c3cc4c(cc3F)C(=O)NCC4)c(N)nc2F)ccc1N1CCS(=O)(=O)CC1` [I-498, 6-(2-amino-5-(3-((dimethylamino)methyl)-4-(1,1-dioxidothiomorpholino)phenyl)-6-fluoropyridin-3-yl)-7-fluoro-3,4-dihydroisoquinolin-1(2H)-one], for which the half-inhibitory concentration (IC50) lay in the range of 11 to 100 nM.
